Results reported in US20100267561A1, “HERBICIDAL PYRIDAZINONE DERIVATIVES” (priority 2007, published 2010).

How the values were obtained:
Format in all cases: in vivo
[1] = tested on: corn (Zea mays); assay: Test A pre-/postemergence plant response
Method in brief: (§1)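 Both pre- and postemergence treatment given concurrently; postemergence seedlings measured 2–10 cm at the one- to two-leaf stage. Visual injury, 0–100 scale versus untreated, at ~10 days.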

[2] = tested on: giant foxtail (Setaria faberi); assay: Test A pre-/postemergence plant response
Method in brief: as §1

[3] = tested on: johnsongrass (Sorghum halepense); assay: Test B pre-/postemergence plant response
Text: (§2) Seeds of plant species selected from blackgrass (Alopecurus myosuroides), downy bromegrass (Bromus tectorum), green foxtail (Setaria viridis), Italian ryegrass (Lolium multiflorum), wheat (Triticum aestivum), wild oat (Avena fatua), catchweed bedstraw (Galium aparine), bermudagrass (Cynodon dactylon), surinam grass (Brachiaria decumbens), cocklebur (Xanthium strumarium), corn (Zea mays), large crabgrass (Digitaria sanguinalis), woolly cupgrass (Eriochloa villosa), giant foxtail (Setaria faberii), goosegrass (Eleusine indica), johnsongrass (Sorghum halepense), kochia (Kochia scoparia), lambsquarters (Chenopodium album), morningglory (Ipomoea coccinea), eastern black (E.B.) nightshade (Solanum ptycanthum), yellow nutsedge (Cyperus esculentus), pigweed (Amaranthus retroflexus), common ragweed (Ambrosia elation), Russian thistle (Salsola iberica), soybean (Glycine max), common (oilseed) sunflower (Helianthus annuus), and velvetleaf (Abutilon theophrasti) were planted and treated preemergence with test chemicals formulated in a non-phytotoxic solvent mixture which included a surfactant.
(§3) At the same time, plants selected from these crop and weed species and also winter barley (Hordeum vulgare), canarygrass (Phalaris minor), chickweed (Stellaria media) and windgrass (Apera spica-venti) were treated with postemergence applications of some of the test chemicals formulated in the same manner. Plants ranged in height from 2 to 18 cm (1- to 4-leaf stage) for postemergence treatments.
(§4) Plant species in the flooded paddy test consisted of rice (Oryza sativa), umbrella sedge (Cyperus difformis), ducksalad (Heteranthera limosa) and barnyardgrass (Echinochloa crus-galli) grown to the 2-leaf stage for testing. At time of treatment, test pots were flooded to 3 cm above the soil surface, treated by application of test compounds directly to the paddy water, and then maintained at that water depth for the duration of the test. Treated plants and controls were maintained in a greenhouse for 13 to 15 days, after which time all species were compared to controls and visually evaluated. Plant response ratings, summarized in Table B, are based on a scale of 0 to 100 where 0 is no effect and 100 is complete control. A dash (-) response means no test result.

[4] = tested on: bermudagrass (Cynodon dactylon); assay: Test B pre-/postemergence plant response
Text: as §2, §3, §4

[5] = tested on: common (oilseed) sunflower (Helianthus annuus); assay: Test B pre-/postemergence plant response; settings: Preemergence
Text: as §2, §3, §4

[6] = tested on: wheat (Triticum aestivum); assay: Test B pre-/postemergence plant response
Text: as §2, §3, §4

[7] = tested on: yellow nutsedge (Cyperus esculentus); assay: Test B pre-/postemergence plant response
Text: as §2, §3, §4

[8] = tested on: velvetleaf (Abutilon theophrasti); assay: Test B pre-/postemergence plant response
Text: as §2, §3, §4

[9] = tested on: eastern black (E.B.) nightshade (Solanum ptycanthum); assay: Test B pre-/postemergence plant response; settings: Preemergence
Text: as §2, §3, §4

[10] = tested on: Italian ryegrass (Lolium multiflorum); assay: Test B pre-/postemergence plant response
Text: as §2, §3, §4

[11] = tested on: kochia (Kochia scoparia); assay: Test B pre-/postemergence plant response
Text: as §2, §3, §4

[12] = tested on: soybean (Glycine max); assay: Test B pre-/postemergence plant response
Text: as §2, §3, §4

[13] = Postemergence, 125 g ai/ha, 0 to 100 scale, 0 no effect, 100 complete control
[14] = Postemergence, 500 g ai/ha, 0 to 100 scale, 0 no effect, 100 complete control
[15] = Preemergence, 125 g ai/ha, 0 to 100 scale (0 no effect, 100 complete control)
[16] = Preemergence, 500 g ai/ha, 0 to 100 scale (0 no effect, 100 complete control)
[17] = Postemergence, 125 g ai/ha, scale 0 to 100
[18] = Postemergence, 250 g ai/ha, scale 0 to 100
[19] = Preemergence, 31 g ai/ha, 0 to 100 scale, 0 no effect, 100 complete control
[20] = Preemergence, 62 g ai/ha, scale 0 to 100
[21] = Preemergence, 125 g ai/ha, scale 0 to 100
[22] = Preemergence, 250 g ai/ha, scale 0 to 100
[23] = Postemergence, 31 g ai/ha, scale 0 to 100, 0 no effect, 100 complete control
[24] = Postemergence, 62 g ai/ha, scale 0 to 100
[25] = 31 g ai/ha, 0 to 100 scale, 0 no effect, 100 complete control

5-[3-(4-chlorophenyl)-5-methyl-1H-pyrazol-1-yl]-1,6-dihydro-1-methyl-6-oxo-4-pyridazinyl-1-methylethyl carbonate [Compound 7]
Plant response rating, Corn [1, 13]: 50 | Plant response rating, Corn [1, 14]: 100 | Plant response rating, Corn [1, 15]: 60 | Plant response rating, Corn [1, 16]: 90 | Plant response rating, Foxtail, Giant [2, 13]: 90 | Plant response rating, Foxtail, Giant [2, 14]: 90 | Plant response rating, Foxtail, Giant [2, 15]: 100 | Plant response rating, Foxtail, Giant [2, 16]: 100 | Plant response rating, Johnsongrass [3, 17]: 0 | Plant response rating, Johnsongrass [3, 18]: 0 | Plant response rating, Johnsongrass [3, 19]: 75 | Plant response rating, Johnsongrass [3, 20]: 98 | Plant response rating, Johnsongrass [3, 21]: 100 | Plant response rating, Johnsongrass [3, 22]: 100 | Bermudagrass plant response rating ([4]; 250 g ai/ha, preemergence, 0-100 scale): 100 | Plant response rating, Bermudagrass [4, 23]: 100 | Plant response rating, Bermudagrass [4, 24]: 100 | Plant response rating, Bermudagrass [4, 17]: 100 | Plant response rating, Bermudagrass [4, 18]: 100 | Plant response rating, Bermudagrass [4, 19]: 60 | Plant response rating, Bermudagrass [4, 20]: 90 | Plant response rating, Bermudagrass [4, 21]: 90 | Plant response rating, Sunflower [5, 25]: 0 | Plant response rating, Sunflower ([5]; 62 g ai/ha, scale 0 to 100): 0 | Plant response rating, Sunflower ([5]; 125 g ai/ha, scale 0 to 100): 0 | Plant response rating, Sunflower ([5]; 250 g ai/ha, scale 0 to 100): 0 | Plant response rating, Wheat [6, 23]: 60 | Plant response rating, Wheat [6, 24]: 80 | Plant response rating, Wheat [6, 17]: 95 | Plant response rating, Wheat [6, 19]: 0 | Plant response rating, Wheat [6, 20]: 65 | Plant response rating, Wheat [6, 21]: 80 | Plant response rating, Wheat [6, 22]: 95 | Plant response rating, Nutsedge, Yellow [7, 23]: 0 | Plant response rating, Nutsedge, Yellow [7, 24]: 0 | Plant response rating, Nutsedge, Yellow [7, 17]: 0 | Plant response rating, Nutsedge, Yellow [7, 18]: 0 | Plant response rating, Nutsedge, Yellow [7, 19]: 0 | Plant response rating, Nutsedge, Yellow [7, 20]: 0 | Plant response rating, Nutsedge, Yellow [7, 21]: 0 | Plant response rating, Nutsedge, Yellow [7, 22]: 0 | Plant response rating, Velvetleaf [8, 23]: 0 | Plant response rating, Velvetleaf [8, 24]: 0 | Plant response rating, Velvetleaf [8, 17]: 0 | Plant response rating, Velvetleaf [8, 18]: 0 | Plant response rating, Velvetleaf [8, 19]: 0 | Plant response rating, Velvetleaf [8, 20]: 0 | Plant response rating, Velvetleaf [8, 21]: 0 | Plant response rating, Velvetleaf [8, 22]: 0 | Plant response rating, Nightshade, E. B. [9, 25]: 30 | Plant response rating, Nightshade, E. B. ([9]; 62 g ai/ha, scale 0 to 100): 30 | Plant response rating, Nightshade, E. B. ([9]; 125 g ai/ha, scale 0 to 100): 100 | Plant response rating, Nightshade, E. B. ([9]; 250 g ai/ha, scale 0 to 100): 100 | Plant response rating, Ryegrass, Italian [10, 23]: 95 | Plant response rating, Ryegrass, Italian [10, 24]: 100 | Plant response rating, Ryegrass, Italian [10, 17]: 100 | Plant response rating, Ryegrass, Italian [10, 18]: 100 | Plant response rating, Ryegrass, Italian [10, 19]: 90 | Plant response rating, Ryegrass, Italian [10, 20]: 100 | Plant response rating, Ryegrass, Italian [10, 21]: 100 | Plant response rating, Ryegrass, Italian [10, 22]: 100 | Plant response rating, Kochia [11, 23]: 0 | Plant response rating, Kochia [11, 24]: 0 | Plant response rating, Kochia [11, 17]: 0 | Plant response rating, Kochia [11, 18]: 10 | Plant response rating, Kochia [11, 19]: 0 | Plant response rating, Kochia [11, 20]: 0 | Plant response rating, Kochia [11, 21]: 0 | Plant response rating, Kochia [11, 22]: 0 | Plant response rating, Soybean [12, 23]: 0 | Plant response rating, Soybean [12, 24]: 0 | Plant response rating, Soybean [12, 21]: 0 | Plant response rating, Soybean [12, 22]: 0
